# Assay results taken from US7342018B2, “Urokinase inhibitors and uses thereof” (Wilex AG, priority 1998, dated 2008).
# “And” between values parts separate entries of the source, which are not always exact repeats. Equal values may be shown once.
# Experiments:
# [1] = test system: human ovarian carcinoma cells OV-MZ-6; assay: Cytotoxicity determination (tetrazolium salt conversion, Promega); format: cell-based
# Excerpt: To determine cell proliferation/cytotoxicity a commercially available test was used (Promega) which is based on the cellular conversion of a tetrazolium salt. The colored product resulting from this reaction can be quantified by means of an ELISA spectrometer (ICN flow). The synthetic inhibitor (open circles) had no effect on the growth of the human ovarian carcinoma cells OV-MZ-6 (FIG. 1) when compared with the solvent alone (closed circles). Thus, the inventive uPA inhibitor is not cytotoxic in pharmacologically effective concentrations up to 40 μM.
# Glandular kallikrein = Glandular kallikrein (Homo sapiens, UniProt P06870); assay: In vitro inhibition of serine proteases: glandular kallikrein; format: biochemical
# Protocol: Ki values were determined according to Dixon by linear regression using a computer program.
# [2] = Phase I clinical trial in healthy male volunteers (WX/50-001); format: in vivo, human; conditions: for tolerability: all dose levels
# Protocol: In the first clinical trial with WX-UK1 (WX/50-001) the drug was investigated in a double-blind, randomized, three-way cross-over, placebo controlled phase I study focussing on pharmacokinetics, pharmacodynamics, safety, and tolerability of increasing doses of WX-UK1.
# In this study six ascending i.v. Doses of WX-UK1 in the range of 0.01 to 0-3 mg/kg were administered and each dose was given to groups of six healthy male volunteers.
# rat breast tumor BN472 = assay: BN472 rat breast tumor model, metastatic lung foci (Example 10); format: in vivo
# Excerpt: In detail, the syngeneic transplantable spontaneously metastasizing rat breast tumor BN472 was used as a model. BN-472 transplantable rat mammary carcinoma used in this study was originally found spontaneously developed in a retired breeder female Brown Norway rat (Kort et al. J. Nat. Cancer Inst. 1984, 72: 7709-7713). The data presented here focus on the reduction in the number of metastatic lung foci as endpoint.
# FIG. 7 depicts the anti-metastatic efficacy of WX-UK1 in a setting implying surgical resection of the orthotopically growing tumor at a defined size and various time points of therapy onset relative to resection. After orthotopic implantation of BN472 fragment under the mammary fat pad the primary tumors were allowed to grow to a fixed palpable size (4×4 mm). The treatments groups (n=18) were allocated in a way to ensure homogeneous group composition with respect to tumor residence periods (range 3-14 d) prior group allocation. Primary tumors were surgically removed 4 days after having reached the fixed size. Onsets of treatments with 0.3 mg/kg s.c. daily were group specifically either on the day of reaching the fixed size (PO)mor four (P4), eight (P8), or twelve (P112) days thereafter. […] Starting on day 3 after tumor inoculation treatment groups (n=15) received WX-UK1 at weekly doses of […] either by daily application of 0.3 mg/kg (0.3 mg/kg o.d.), by application of 1 mg/kg twice per week (1 mg/kg t.w.) or by dosing 2 mg/kg once per week (2 mg/kg o.w.). The anti-metastatic efficacy previously established with daily treatments was retained when WX-UK1 was administered only twice or once per week at the same weekly dose.
# Treatment was initiated on day 3 after tumor inoculation. b) Groups of rats (n=8) were treated with 5-FU at 20 or 40 mg/kg i.v. once weekly either as mono-therapy or in combination with WX-UK1 i.p. treatments at 1 mg/kg twice weekly or with WX-UK1 alone. Indeed, WX-UK1 was efficacious at reducing lung foci numbers when combined with these standard therapeutics.
# [3] = Biodistribution of the inhibitor in rats (HPLC of tissue extracts); format: in vivo, rat; conditions: for concentration in tracheal lymph nodes: two independent experiments, hydrochloride
# Protocol: The biodistribution of the inhibitor was determined by two independent experiments in tissue extracts of rats which had been treated once a day with 1 mg/kg i.p. of inhibitor i.p. over a period of 5 or 10 days. For the lysis, in each case 100 mg of tissue were mechanically comminuted and mixed with 200 μl of 1% Triton X-100 in physiological NaCl solution. After adding 400 μl of ethanol, the mixture was sonicated for 1 min. The tissue extract was centrifuged at 12,000×g for 15 min. For prepurification, the supernatant was applied to a C18 Silica Reversed Phase column (Sep-Pak® cartridge C18, 1 ml Water, Eschborn, Germany), equilibrated with 1 ml of methanol and 1 ml of water, washed successively with 2×1 ml H2O, 1 ml 10% methanol, 1 ml H2O, 1 ml 5% acetonitrile, 0.04% perchloric acid and 1 ml H2O and eluted with 500 μl of 75% acetonitrile, 0.04% perchloric acid. HPLC analysis was carried out on a reversed phase C18 silica column with a 5-55% strength acetonitrile gradient containing 0.04% perchloric acid.
# [4] = test system: human breast carcinoma cells (MDA-BA-231); assay: Human breast cancer cells in nude mice; format: in vivo, Balb/c nude mice; conditions: 1.2 mg/kg i.p. twice a week, vs control (FIG. 6)
# Protocol: In order to test the in vivo efficacy of the inhibitor for inhibiting tumor growth of human breast carcinoma cells (MDA-BA-231), 6×10^6 cells were injected subcutaneously into the right flank of Balb/c nude mice (4-6 weeks old). The tumor cells were preincubated with the synthetic uPA inhibitor prior to inoculation. After 24 h, the mice were treated twice a week intraperitoneally with a dose of 1.2 mg/kg body weight as described under A). The tumor size was determined weekly by measuring the two largest diameters.
# [5] = concluded from plasma vs tissue concentrations
# Sequence of Glandular kallikrein (P06870 25-262): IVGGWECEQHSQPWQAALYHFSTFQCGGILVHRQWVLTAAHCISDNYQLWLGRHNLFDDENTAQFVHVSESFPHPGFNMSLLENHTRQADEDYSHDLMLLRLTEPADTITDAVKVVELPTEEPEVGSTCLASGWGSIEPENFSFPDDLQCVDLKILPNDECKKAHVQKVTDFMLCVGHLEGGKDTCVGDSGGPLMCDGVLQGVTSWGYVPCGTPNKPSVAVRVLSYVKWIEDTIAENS
smiles,measurement,setting,value
"CCOC(=O)N1CCN(C(=O)[C@H](Cc2cccc(C(=N)N)c2)NS(=O)(=O)c2c(C(C)C)cc(C(C)C)cc2C(C)C)CC1.Cl [uPA inhibitor, Nα-2,4,6-Triisopropylphenylsulfonyl-(L)-3-amidinophenylalanine 4-ethoxycarbonylpiperazide hydrochloride]",effect on the growth of OV-MZ-6 cells,[1]; compared with the solvent alone (FIG. 1),no effect
same,cytotoxicity,[1]; concentrations up to 40 μM,not cytotoxic
same,Ki,Glandular kallikrein,> 1000 µM
same,"changes in vital signs, ECG parameters, general safety laboratory parameters and adverse event profiles",[2]; attributable to the study drug,No changes
same,"mean increases of coagulation parameters PT, aPTT and TT","[2]; doses of 0.05 mg/kg and higher, end of infusion, 0-5% with placebo",6-13%
same,dose proportionality in PK studies,[2]; healthy volunteers,good dose proportionality
same,systemic and local safety profile,[2]; healthy volunteers,advantageous systemic and local safety profile
same,bleeding times,"[2]; human, in vivo",unchanged
same,drug-induced hemolysis,"[2]; human, in vivo",no indication
same,time for coagulation parameters to return to baseline,"[2]; human, in vivo",≤ 15 min
same,time of maximum plasma concentrations,[2]; i.v. infusion (FIG. 10),at the end of the 30 min. infusion period
same,mean terminal half lives,"[2]; i.v. infusion, healthy male volunteers",10 to 12 h
same,tolerability,"[2]; i.v. infusion, healthy volunteers, listed as WK-UK1, hydrochloride",well tolerated
same,tolerability,"[2]; i.v. infusion, healthy volunteers, listed as WX-UK1, hydrochloride",very well tolerated
same,renal excretion of the parent compound,[2]; share of the dose,less then one percent
same,anti-metastatic activity with surgical resection of the primary tumor,"rat breast tumor BN472; 0.3 mg/kg s.c. daily, various onsets relative to resection (FIG. 7)",Anti-metastatic activity was obvious
same,anti-metastatic efficacy at prolonged dosing intervals,rat breast tumor BN472; 1 mg/kg twice per week or 2 mg/kg once per week vs 0.3 mg/kg daily (FIG. 8),retained
same,reducing lung foci numbers in combination,rat breast tumor BN472; combined with epirubicin or 5-FU (FIG. 9),efficacious
same,Content Bile,[3]; 1 mg/kg i.p. 5 days,1.96 µg/mL
same,Content Brain,[3]; 1 mg/kg i.p. 5 days,<0.5 µg/g
same,Content Fat/kidney,[3]; 1 mg/kg i.p. 5 days,0.82 µg/g
same,Content Heart,[3]; 1 mg/kg i.p. 5 days,<0.5 µg/g
same,Content Kidney,[3]; 1 mg/kg i.p. 5 days,2.67 µg/g
same,Content Liver,[3]; 1 mg/kg i.p. 5 days,2.85 µg/g
same,Content Lung,[3]; 1 mg/kg i.p. 5 days,3.70 µg/g
same,Content Lymph nodes/trachea,[3]; 1 mg/kg i.p. 5 days,7.45 µg/g
same,Content Muscle,[3]; 1 mg/kg i.p. 5 days,0.74 µg/g
same,Content Plasma,[3]; 1 mg/kg i.p. 5 days,0.008 µg/mL
same,Content Spleen,[3]; 1 mg/kg i.p. 5 days,2.02 µg/g
same,Content lymph nodes/axillary,[3]; 1 mg/kg i.p. 5 days,1.97 µg/g
same,Content lymph nodes/knee,[3]; 1 mg/kg i.p. 5 days,7.83 µg/g
same,Content Bile,[3]; 1 mg/kg i.p. 10 days,1.75 µg/mL
same,Content Brain,[3]; 1 mg/kg i.p. 10 days,<0.5 µg/g
same,Content Fat/kidney,[3]; 1 mg/kg i.p. 10 days,1.0 µg/g
same,Content Heart,[3]; 1 mg/kg i.p. 10 days,1.09 µg/g
same,Content Kidney,[3]; 1 mg/kg i.p. 10 days,2.48 µg/g
same,Content Liver,[3]; 1 mg/kg i.p. 10 days,2.08 µg/g
same,Content Lung,[3]; 1 mg/kg i.p. 10 days,1.81 µg/g
same,Content Lymph nodes/trachea,[3]; 1 mg/kg i.p. 10 days,16.38 µg/g
same,Content Muscle,[3]; 1 mg/kg i.p. 10 days,<0.5 µg/g
same,Content Plasma,[3]; 1 mg/kg i.p. 10 days,0.035 µg/mL
same,Content Spleen,[3]; 1 mg/kg i.p. 10 days,2.48 µg/g
same,Content lymph nodes/axillary,[3]; 1 mg/kg i.p. 10 days,2.74 µg/g
same,Content lymph nodes/knee,[3]; 1 mg/kg i.p. 10 days,3.8 µg/g
same,plasma concentrations relative to the mean tissue concentrations,[3]; 24 h after the last i.p. administration,one to two orders of magnitude below
same,concentration in tracheal lymph nodes,[3]; after 5 days of administration,5.3 µg/g and 7.5 µg/g
same,concentration in tracheal lymph nodes,[3]; after 10 days of administration,21.6 µg/g and 16.4 µg/g
same,plasma protein binding,[3]; [5],low plasma protein binding
same,tissue affinity,[3]; [5],high tissue affinity
same,accumulation in lymph nodes,"[3]; rat, in vivo",noticeable accumulation
same,tumor volume increase,[4],significantly more slowly
